This note sets out measurements from PubChem BioAssay (NCI).

Among the test systems are EKVX NSCLC; SK-MEL-5 melanoma; OVCAR-4 ovarian; UACC-257 melanoma; TK-10 renal; UACC-62 melanoma; HT29 colon; NCI/ADR-RES ovarian; NCI-H522 lung; K-562 leukemia.
Experiment in all cases: NCI tumour cell line growth inhibition, 48 h

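Dose response: 5 concentrations. Exposure: 48 h. Format: 96-well plates. Endpoint: linear interpolation; highest concentration if not reached. Abbreviation: GI50, concentration required for 50% inhibition of growth. TGI marks complete inhibition of growth.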

Take `CC(=O)O[C@H]1CC[C@]2(C)C3C(=O)C[C@]4(C)[C@@H](C(C)CCC(=O)O)CC[C@@]4(C)[C@@H]3CC[C@H]2C1(C)C` (stereo not given in full): the GI50 was 10.2 µM in the experiment with EKVX NSCLC; 8.53 µM in the experiment with SK-MEL-5 melanoma; 40.4 µM with OVCAR-4 ovarian; 13.3 µM in the experiment on UACC-257 melanoma; 21.8 µM in the experiment with TK-10 renal; 21.7 µM with UACC-62 melanoma. The GI50 is 18.6 µM with HT29 colon, 16.5 µM in the experiment on NCI/ADR-RES ovarian, above 50 µM in the experiment with NCI-H522 lung and 14.9 µM in the experiment with K-562 leukemia. The TGI with EKVX NSCLC is 36.8 µM; in the experiment with SK-MEL-5 melanoma, 17.5 µM; in the experiment on OVCAR-4 ovarian, above 50 µM; with UACC-257 melanoma, 33.9 µM; in the experiment with TK-10 renal, above 50 µM; with UACC-62 melanoma, above 50 µM. The TGI with HT29 colon, in the experiment with NCI/ADR-RES ovarian, in the experiment on NCI-H522 lung and with K-562 leukemia was above 50 µM in each case.
For `Cc1nn(-c2ccccc2)c2nc(C)n(-c3ccc(Br)cc3)c(=O)c12`, the GI50 was 0.822 µM in the experiment on EKVX NSCLC; 0.516 µM in the experiment on SK-MEL-5 melanoma; 1.56 µM in the experiment with OVCAR-4 ovarian; 0.768 µM in the experiment on UACC-257 melanoma; 5.53 µM with TK-10 renal; 0.428 µM in the experiment with UACC-62 melanoma. Also, the GI50 is 0.355 µM in the experiment on HT29 colon, 0.449 µM in the experiment with NCI/ADR-RES ovarian, 0.326 µM in the experiment on NCI-H522 lung and 0.302 µM in the experiment on K-562 leukemia. Moreover, the TGI with EKVX NSCLC was above 100 µM; in the experiment on SK-MEL-5 melanoma it was 11.1 µM; in the experiment on OVCAR-4 ovarian, above 100 µM; in the experiment on UACC-257 melanoma it was above 100 µM; in the experiment on TK-10 renal, above 100 µM; in the experiment on UACC-62 melanoma it was above 100 µM. Besides, the TGI in the experiment with HT29 colon was above 31.6 µM; in the experiment on NCI/ADR-RES ovarian, above 100 µM; in the experiment on NCI-H522 lung it was 18.6 µM; in the experiment with K-562 leukemia it was above 100 µM.
For the molecule `O=c1[nH]c(=O)n(C2OC(CO)C(O)C2O)cc1F` (stereo not given), the TGI is above 93.8 µM in the experiment with EKVX NSCLC; 38.4 µM with SK-MEL-5 melanoma; 17.7 µM with OVCAR-4 ovarian; 53.4 µM in the experiment on UACC-257 melanoma; above 62.2 µM in the experiment with TK-10 renal; 7.56 µM in the experiment with UACC-62 melanoma. Also, the TGI in the experiment on HT29 colon was above 100 µM; in the experiment with NCI/ADR-RES ovarian it was above 100 µM; in the experiment with NCI-H522 lung it was 30.6 µM; in the experiment on K-562 leukemia, above 100 µM. Also, the GI50 was 1.33 µM with UACC-257 melanoma; 0.0515 µM with UACC-62 melanoma; 0.0697 µM in the experiment with HT29 colon; 0.349 µM in the experiment on NCI-H522 lung; 0.018 µM with K-562 leukemia.
Turning to `CCC(C)C(=O)OC1CCC=C2C=CC(C)C(CCC3CC(O)CC(=O)O3)C21` (stereo not given), the TGI with EKVX NSCLC is above 100 µM; in the experiment on SK-MEL-5 melanoma, above 100 µM; with OVCAR-4 ovarian, above 100 µM; in the experiment with UACC-257 melanoma, above 100 µM; in the experiment with TK-10 renal, 98.8 µM; in the experiment with UACC-62 melanoma, above 100 µM. For the same molecule, the TGI in the experiment with HT29 colon was above 100 µM; in the experiment with NCI/ADR-RES ovarian it was above 100 µM; with NCI-H522 lung, 21 µM; with K-562 leukemia, above 100 µM.
For the molecule `CCS(=O)(=O)N1CCN(c2ccc(Nc3ncc(C(N)=O)c(NC4CC4)n3)cc2)CC1`, the GI50 in the experiment with EKVX NSCLC was 63 µM; with SK-MEL-5 melanoma, 3.13 µM; in the experiment on OVCAR-4 ovarian, 12.1 µM; with UACC-257 melanoma, 21.2 µM; in the experiment on TK-10 renal, 9.19 µM; with UACC-62 melanoma, 15.7 µM. In addition, the GI50 in the experiment with HT29 colon was 6.14 µM; with NCI/ADR-RES ovarian it was 9.59 µM; with NCI-H522 lung, 14.1 µM; in the experiment on K-562 leukemia, 4.94 µM. The TGI with EKVX NSCLC was above 100 µM; in the experiment on SK-MEL-5 melanoma it was 26.6 µM; in the experiment on OVCAR-4 ovarian, above 100 µM; in the experiment with UACC-257 melanoma, above 100 µM; with TK-10 renal, 32.2 µM; in the experiment with UACC-62 melanoma it was 44 µM. Besides, the TGI is 21.6 µM in the experiment with HT29 colon, above 100 µM in the experiment on NCI/ADR-RES ovarian, 44.1 µM in the experiment on NCI-H522 lung and above 100 µM in the experiment with K-562 leukemia.
For the molecule `O=C(CCl)Nc1ccc(Cc2ccc(NC(=O)CCl)cc2)cc1`, the GI50 with EKVX NSCLC is 2.23 µM; with SK-MEL-5 melanoma it was 1.37 µM; with OVCAR-4 ovarian it was 1.42 µM; in the experiment on UACC-257 melanoma it was 2.78 µM; with TK-10 renal it was 4.17 µM; in the experiment on UACC-62 melanoma, 1.53 µM. For the same molecule, the GI50 was 1.73 µM in the experiment with HT29 colon, 2.84 µM in the experiment on NCI/ADR-RES ovarian, 1.47 µM in the experiment on NCI-H522 lung and 1.67 µM with K-562 leukemia. The TGI in the experiment on EKVX NSCLC is 5.78 µM; with SK-MEL-5 melanoma, 2.72 µM; in the experiment with OVCAR-4 ovarian, 3.44 µM; with UACC-257 melanoma, 9.46 µM; in the experiment with TK-10 renal it was above 75 µM; in the experiment with UACC-62 melanoma, 3.34 µM. Besides, the TGI in the experiment on HT29 colon is 4.47 µM; with NCI/ADR-RES ovarian it was above 100 µM; in the experiment on NCI-H522 lung, 3.5 µM; in the experiment with K-562 leukemia, above 100 µM.
Turning to `C=C1C(=O)O[C@H]2[C@H]1CC/C(COC(=O)/C=C\C(=O)NCc1ccc(Cn3c(=O)sn(-c4ccc(Cl)cc4)c3=O)cc1)=C\CC[C@@]1(C)O[C@@H]21`, the GI50 is 0.809 µM in the experiment with EKVX NSCLC; 0.825 µM with SK-MEL-5 melanoma; 0.685 µM in the experiment on OVCAR-4 ovarian; 0.8 µM in the experiment on UACC-257 melanoma; 0.775 µM in the experiment with TK-10 renal; 0.724 µM with UACC-62 melanoma. The GI50 is 0.369 µM in the experiment with HT29 colon, 1.25 µM in the experiment with NCI/ADR-RES ovarian, 0.632 µM in the experiment with NCI-H522 lung and 0.409 µM with K-562 leukemia. In addition, the TGI in the experiment with EKVX NSCLC was 1.58 µM; in the experiment with SK-MEL-5 melanoma, 1.52 µM; with OVCAR-4 ovarian, 1.37 µM; in the experiment on UACC-257 melanoma, 1.72 µM; in the experiment on TK-10 renal, 1.5 µM; in the experiment with UACC-62 melanoma, 1.47 µM. The TGI in the experiment with HT29 colon came out at 1.52 µM; with NCI/ADR-RES ovarian it was 5.06 µM; in the experiment on NCI-H522 lung, 1.55 µM; in the experiment on K-562 leukemia it was 50 µM.
In the case of `CCSCCCC(=O)O`, the TGI in the experiment on EKVX NSCLC, in the experiment on SK-MEL-5 melanoma, in the experiment with OVCAR-4 ovarian, with UACC-257 melanoma, in the experiment on TK-10 renal and in the experiment with UACC-62 melanoma was above 100 µM throughout. Moreover, the TGI in the experiment with HT29 colon, in the experiment on NCI/ADR-RES ovarian, in the experiment on NCI-H522 lung and in the experiment on K-562 leukemia was above 100 µM each time.
